Bounds are passed on as bounds.

The source of these data is patent US9133228B2, “Guanidinyl-substituted polyamides useful for treating human papilloma virus” (Nanovir, LLC, priority 2011, dated 2015).

What all share (assay type): cell-based, Human papilloma virus
For one assay, the system named is HPV16. Briefly: Inhibition of viral replication in cells that maintain HPV16 DNA, viral DNA quantified by real-time PCR. Conditions: cells maintaining HPV16 cultured 72 hours with polyamide; vs DMSO control; highest dose tested 10 μM. The source says:
(§1) Table 1a lists a number of exemplary polyamides synthesized in accordance with the present invention. The HPLC/MW values given in Table 1b were obtained using low resolution high pressure liquid chromatography/mass spectrometry (LR HPLC/MS), which provides moderate precision masses of single isotopomers rather than average molecular weights or exact masses. Table 2 presents a summary of measured IC50 values of certain of these polyamides against HPV16, HPV18 and HPV31. The IC50 is the concentration of compound required for 50% inhibition of viral replication in vitro. The polyamides were tested in cells that maintain HPV16, HPV18 or HPV31 DNA. Cells maintaining the selected HPV were cultured for 72 hours in the presence of the polyamide. Viral DNA was then quantified using real-time PCR and compared to vehicle (DMSO)-treated control cultures. […] Table 3 presents a summary of measured IC50 and IC90 values of certain of these polyamides against HPV16, HPV18 and HPV31.

The next assay has as its system HPV31. Briefly: Inhibition of viral replication in cells that maintain HPV31 DNA, viral DNA quantified by real-time PCR. Conditions: cells maintaining HPV31 cultured 72 hours with polyamide; vs DMSO control; highest dose tested 10 μM.
Source text: as §1

A further assay relates to HPV18. Briefly: Inhibition of viral replication in cells that maintain HPV18 DNA, viral DNA quantified by real-time PCR. The settings on record: cells maintaining HPV18 cultured 72 hours with polyamide; vs DMSO control; highest dose tested 10 μM.
Source text: as §1

On to `CN(CCCN)CCCNC(=O)c1cc(NC(=O)c2cc(NC(=O)CCNC(=O)c3cc(NC(=O)c4cc(NC(=O)c5cc(NC(=O)CCNC(=O)c6cc(NC(=O)c7cc(NC(=O)CCNC(=O)c8cc(NC(=O)[C@H](N)CCNC(=O)c9nc(NC(=O)c%10cc(NC(=O)CCNC(=O)c%11cc(NC(=O)c%12cc(NC(=O)CCNC(=O)c%13cc(NC(=O)c%14cc(N=C(N(C)C)N(C)C)cn%14C)cn%13C)cn%12C)cn%11C)cn%10C)cn9C)cn8C)cn7C)cn6C)cn5C)cn4C)cn3C)cn2C)cn1C` [NV1071, TMG-PyPyβPyPyβPyIm-γNH2-PyβPyPyβPyPyPyβPyPy-Ta•5TFA], for which the IC50 in the assay on HPV16 came to 255 nM; in the assay with HPV31, 95 nM; with HPV18, 93 nM.
The like results for `CN(CCCN)CCCNC(=O)CCNC(=O)c1cc(NC(=O)CCNC(=O)c2cc(NC(=O)c3cc(NC(=O)c4cc(NC(=O)CCNC(=O)c5cc(NC(=O)c6cc(NC(=O)CCNC(=O)c7cc(NC(=O)[C@@H](CCNC(=O)c8nc(NC(=O)c9cc(NC(=O)CCNC(=O)c%10cc(NC(=O)c%11cc(NC(=O)CCNC(=O)c%12cc(NC(=O)c%13cc(NC(=O)c%14cc(N=C(N(C)C)N(C)C)cn%14C)cn%13C)cn%12C)cn%11C)cn%10C)cn9C)cn8C)NC(=O)NCCCN(C)CCCN)cn7C)cn6C)cn5C)cn4C)cn3C)cn2C)cn1C` [NV1072, TMG-PyPyPyβPyPyβPyIm-γNHR′-PyβPyPyβPyPyPyβPyβ-Ta•6TFA] were, in that order, 109 nM, 96 nM and 216 nM.
In the case of `CN(CCCN)CCCNC(=O)CCNC(=O)c1cc(NC(=O)CCNC(=O)c2cc(NC(=O)c3cc(NC(=O)c4cc(NC(=O)CCNC(=O)c5cc(NC(=O)c6cc(NC(=O)CCNC(=O)c7cc(NC(=O)[C@H](N)CCNC(=O)c8nc(NC(=O)c9cc(NC(=O)CCNC(=O)c%10cc(NC(=O)c%11cc(NC(=O)CCNC(=O)c%12cc(NC(=O)c%13cc(NC(=O)c%14cc(N=C(N(C)C)N(C)C)cn%14C)cn%13C)cn%12C)cn%11C)cn%10C)cn9C)cn8C)cn7C)cn6C)cn5C)cn4C)cn3C)cn2C)cn1C` [NV1073, TMG-PyPyPyβPyPyβPyIm-γNH2-PyβPyPyβPyPyPyβPyβ-Ta•5TFA], the IC50 in the assay on HPV16 is 267 nM; in the assay with HPV31 it was 220 nM; in the assay with HPV18, 405 nM.
On to `CN(CCCN)CCCNC(=O)CCNC(=O)c1cc(NC(=O)CCNC(=O)c2cc(NC(=O)c3cc(NC(=O)c4cc(NC(=O)CCNC(=O)c5cc(NC(=O)c6cc(NC(=O)c7cc(NC(=O)[C@@H](CCNC(=O)c8cc(NC(=O)CCNC(=O)c9cc(NC(=O)c%10cc(NC(=O)CCNC(=O)c%11cc(NC(=O)c%12cc(NC(=O)c%13cc(N=C(N(C)C)N(C)C)cn%13C)cn%12C)cn%11C)cn%10C)cn9C)cn8C)NC(=O)NCCCN(C)CCCN)cn7C)cn6C)cn5C)cn4C)cn3C)cn2C)cn1C` [NV1074, TMG-PyPyPyβPyPyβPy-γNHR′-PyPyPyβPyPyPyβPyβ-Ta•5TFA], for which the IC50 with HPV16 came to 178 nM; in the assay with HPV31, 52 nM; in the assay with HPV18 it was 41 nM.
The like results for `CN(C)CCCNC(=O)CCNC(=O)c1cc(NC(=O)CCNC(=O)c2cc(NC(=O)c3cc(NC(=O)c4cc(NC(=O)CCNC(=O)c5cc(NC(=O)c6cc(NC(=O)CCNC(=O)c7cc(NC(=O)[C@H](N)CCNC(=O)c8nc(NC(=O)c9cc(NC(=O)CCNC(=O)c%10cc(NC(=O)c%11cc(NC(=O)CCNC(=O)c%12cc(NC(=O)c%13cc(NC(=O)c%14cc(N=C(N(C)C)N(C)C)cn%14C)cn%13C)cn%12C)cn%11C)cn%10C)cn9C)cn8C)cn7C)cn6C)cn5C)cn4C)cn3C)cn2C)cn1C` [NV1075, TMG-PyPyPyβPyPyβPyIm-γNH2-PyβPyPyβPyPyPyβPyβ-Dp•4TFA] were, in that order, 124 nM, 56 nM and 49 nM.
For `CN(CCCN)CCCNC(=O)CCNC(=O)c1cc(NC(=O)CCNC(=O)c2cc(NC(=O)c3cc(NC(=O)c4cc(NC(=O)CCNC(=O)c5cc(NC(=O)c6cc(NC(=O)c7cc(NC(=O)[C@H](N)CCNC(=O)c8cc(NC(=O)CCNC(=O)c9cc(NC(=O)c%10cc(NC(=O)CCNC(=O)c%11cc(NC(=O)c%12cc(NC(=O)c%13cc(N=C(N(C)C)N(C)C)cn%13C)cn%12C)cn%11C)cn%10C)cn9C)cn8C)cn7C)cn6C)cn5C)cn4C)cn3C)cn2C)cn1C` [NV1076, TMG-PyPyPyβPyPyβPy-γNH2-PyPyPyβPyPyPyβPyβ-Ta] the same measures were 67 nM, 104 nM and 48 nM.
Take `CN(C)CCCNC(=O)CCNC(=O)c1cc(NC(=O)CCNC(=O)c2cc(NC(=O)c3cc(NC(=O)c4cc(NC(=O)CCNC(=O)c5cc(NC(=O)c6cc(NC(=O)c7cc(NC(=O)[C@H](N)CCNC(=O)c8cc(NC(=O)CCNC(=O)c9cc(NC(=O)c%10cc(NC(=O)CCNC(=O)c%11cc(NC(=O)c%12cc(NC(=O)c%13cc(N=C(N(C)C)N(C)C)cn%13C)cn%12C)cn%11C)cn%10C)cn9C)cn8C)cn7C)cn6C)cn5C)cn4C)cn3C)cn2C)cn1C` [NV1077, TMG-PyPyPyβPyPyβPy-γNH2-PyPyPyβPyPyPyβPyβ-Dp]: the IC50 came out at 95 nM in the assay with HPV16, 32 nM in the assay on HPV31 and 15 nM in the assay on HPV18.
The like results for `CN(CCCN)CCCNC(=O)CCNC(=O)c1cc(NC(=O)c2cc(NC(=O)c3cc(NC(=O)CCNC(=O)c4cc(NC(=O)c5cc(NC(=O)c6cc(NC(=O)CCNC(=O)c7cc(NC(=O)c8cc(NC(=O)CCCNC(=O)c9cc(NC(=O)c%10cc(NC(=O)CCNC(=O)c%11nc(NC(=O)c%12cc(NC(=O)c%13cc(NC(=O)CCNC(=O)c%14cc(N=C(N(C)C)N(C)C)cn%14C)cn%13C)cn%12C)cn%11C)cn%10C)cn9C)cn8C)cn7C)cn6C)cn5C)cn4C)cn3C)cn2C)cn1C` [NV1078, TMG-PyβPyPyImβPyPy-γ-PyPyβPyPyPyβPyPyPyβ-Ta•4TFA] were, in that order, 32 nM, 35 nM and 27 nM.
For the molecule `CN(C)CCCNC(=O)CCNC(=O)c1cc(NC(=O)CCNC(=O)c2cc(NC(=O)c3cc(NC(=O)c4cc(NC(=O)CCNC(=O)c5cc(NC(=O)c6cc(NC(=O)c7cc(NC(=O)[C@@H](CCNC(=O)c8cc(NC(=O)CCNC(=O)c9cc(NC(=O)c%10cc(NC(=O)CCNC(=O)c%11cc(NC(=O)c%12cc(NC(=O)c%13cc(N=C(N(C)C)N(C)C)cn%13C)cn%12C)cn%11C)cn%10C)cn9C)cn8C)NC(=O)NCCCN(C)C)cn7C)cn6C)cn5C)cn4C)cn3C)cn2C)cn1C` [NV1079, TMG-PyPyPyβPyPyβPy-γNHR″-PyPyPyβPyPyPyβPyβ-Dp•3TFA], the IC50 with HPV16 came out at 42 nM; in the assay on HPV31 it was 37 nM; in the assay with HPV18, 17 nM.
Turning to `CN(C)CCCNC(=O)CCNC(=O)c1cc(NC(=O)c2cc(NC(=O)c3cc(NC(=O)CCNC(=O)c4cc(NC(=O)c5cc(NC(=O)c6cc(NC(=O)CCNC(=O)c7cc(NC(=O)c8cc(NC(=O)CCCNC(=O)c9cc(NC(=O)c%10cc(NC(=O)CCNC(=O)c%11nc(NC(=O)c%12cc(NC(=O)c%13cc(NC(=O)CCNC(=O)c%14cc(N=C(N(C)C)N(C)C)cn%14C)cn%13C)cn%12C)cn%11C)cn%10C)cn9C)cn8C)cn7C)cn6C)cn5C)cn4C)cn3C)cn2C)cn1C` [NV1080, TMG-PyβPyPyImβPyPy-γ-PyPyβPyPyPyβPyPyPyβ-Dp•3TFA], the IC50 in the assay with HPV16 is 53 nM; with HPV31, 47 nM; with HPV18, 35 nM.
Regarding `CN(C)CCCNC(=O)CCNC(=O)c1cc(NC(=O)c2cc(NC(=O)c3cc(NC(=O)c4cc(NC(=O)CCNC(=O)c5cc(NC(=O)c6cc(NC(=O)CCCNC(=O)c7cc(NC(=O)c8cc(NC(=O)c9cc(NC(=O)CCNC(=O)c%10cc(N=C(N(C)C)N(C)C)cn%10C)cn9C)cn8C)cn7C)cn6C)cn5C)cn4C)cn3C)cn2C)cn1C` [NV1081, TMG-PyβPyPyPy-γ-PyPyβPyPyPyPyβ-Dp•2TFA], the concentration for half-maximal inhibition (IC50) in the assay on HPV16, in the assay with HPV31 and in the assay with HPV18 was greater than 10000 nM in each case.
